Measurements from patent publication US20130202586A1, “STEM CELL THERAPY USING INHIBITORS OF LYSOPHOSPHATIDIC ACID” (priority 2011, published 2013).

Assays:
[1] = tested on: plated neurospheres (human NSC); conditions: 10 μM LPA, Dottori et al.; cited from earlier work
[2] = tested on: plated neurospheres (human NSC); assay: Neuronal differentiation: neuron-forming neurospheres; assay type: cell-based
Protocol: (§1) Neurospheres were formed and cultured as described in Dottori, M. et al. (2008), supra. Briefly, human embryonic stem cells (HES-2, HES-3, and HES-4, WiCell Research Institute, Madison Wis.) were cultured according to previously published methods. Neuronal induction using noggin was performed according to published methods and after growth and subculture, cells were grown as neurospheres in the presence of growth factors. Neurospheres could be plated on dishes coated with laminin or fibronectin. When plated onto laminin and cultured with neural basal medium (NBM, R&D Systems, Minneapolis Minn.), neurospheres typically differentiate into neurons. Quantitation of neuron-forming spheres (a measure of neuronal differentiation) was done by counting the number of neurospheres from which neuronal outgrowth was visible.
[…] […] Dilutions of LPA were made in 0.1% fatty acid-free bovine serum albumin (final concentration 0.01% BSA).
The effect of LPA on an additional differentiation step, the differentiation of NSC toward mature cells, was also measured. When plated on laminin in NBM, neurospheres typically differentiate into neurons, as assayed by visible neurons, elongated cell shape and/or positive staining for β-tubulin.
Using the same conditions used in Example 2 for LPA treatment alone, plated neurospheres were treated with 10 μM LPA alone, or with anti-LPA antibody B3 or B7 (1 mg/ml) alone, or with 10 μM LPA in combination with 1 mg/ml of antibody B3 or B7. Similarly, cells were treated with 10 μM LPA alone, humanized anti-LPA antibody LT3015 alone (1 mg/ml) or with 10 μM LPA in combination with 1 mg/ml LT3015. The percent of neuron-forming neurospheres was quantitated as in Example 2 (beta-tubulin staining and quantification of neuron-forming spheres, as described in Dottori, et al (2008)). […] Neurosphere samples treated with B3 antibody alone had neuron-forming neurospheres equivalent to control (100%). […] The antibody B7, under similar conditions, had little to no effect in this experiment (37.00±5.31% of control). […]

[3] = tested on: noggin-treated cells (human NSC); assay: Neurosphere formation from noggin-treated human embryonic stem cells; assay type: cell-based; conditions: 5-7 days
Protocol: as §1
Plated neurospheres were incubated in the presence or absence of LPA (Sigma Aldrich, St. Louis, Mo.) and/or antibody (concentrations shown) for 5 days. Dilutions of LPA were made in 0.1% fatty acid-free bovine serum albumin (final concentration 0.01% BSA).
As shown by Dottori et al., LPA inhibits the ability of NSC to form neurospheres, even in the presence of bFGF and EGF. […] […] Dottori, M. et al. (2008), supra. […]

adult mouse NSC = assay: Neuronal differentiation of adult mouse NSC; assay type: cell-based
From the text: However, and similarly to data obtained in human NSC, LPA inhibited the neuronal differentiation of adult mouse NSC by maintaining them as NSC when plated in conditions normally inducing neuronal differentiation. […] These effects were independent of apoptosis or proliferation.

[4] = tested on: noggin-treated cells (human NSC); conditions: 10 μM LPA, 11-14 days, Dottori et al.; cited from earlier work

Substance: lysophosphatidic acid [LPA]
- neuronal cells from plated neurospheres [1]: did not give rise to neuronal cells
- neuron-forming neurospheres, % of untreated control ([2]; Example 4, 10 μM LPA alone): approximately 25.00±6.45%
- neuron-forming spheres, % of control ([2]; Example 5, 3 days, 10 μM LPA alone): approximately 26%
- neuron-forming neurospheres, pool of data ([2]; LPA alone): 25.00±6.45%
- % neurosphere formation ([3]; 10 μM LPA): 13.500±5.590%
- % neurosphere formation ([3]; LPA at 1 μM): 50±12.50%
- neurosphere formation or growth of mouse NSC (adult mouse NSC): did not modify neurosphere formation or growth
- nestin positive, % of total cells (adult mouse NSC; LPA 10 μM, three days): 87.55±3.20%
- βIII-tubulin expression, % of total cells (adult mouse NSC; LPA 10 μM, three days): 26.25±2.08%
- % of cultures formed neurospheres [4]: 13.47%±6.94
